Patent US20100003250A1, “(2-ARYL-7H-PYRROLO[2,3-D]PYRIMIDIN-4-YL)MORPHOLINE COMPOUNDS, THEIR USE AS MTOR KINASE AND PI3 KINASE INHIBITORS, AND THEIR SYNTHESES” (Wyeth, priority 2008, published 2010)

Key:
Format in all cases: biochemical
PI3Kα = PI3Kα (Homo sapiens, UniProt P42336); test: PI3K-alpha fluorescence polarization assay; conditions: 20 μM PIP2, 25 μM ATP; read-out: PI3Kα Median IC50
PI3Kγ = PI3Kγ (Homo sapiens, UniProt P48736); test: PI3K-gamma fluorescence polarization assay; conditions: 20 μM PIP2, 25 μM ATP; read-out: PI3Kγ Median IC50
Summary of the method: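 Enzyme preincubated with compound in 20 mM HEPES pH 7.5, 2 mM MgCl2, 0.05% CHAPS, 0.01% βME; reaction started with substrate giving 20 μM diC8 PIP2 and 25 μM ATP final, run 30-60 min at room temperature. Stopped with TAMRA-labelled PIP3 detector probe plus GST-GRP; PIP3 formation read by fluorescence polarization after 90-110 min.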

mTOR Kinase (FLAG-TOR) = molecular target: T1, mTOR Kinase (FLAG-TOR) (Homo sapiens, UniProt P42345); test: mTOR kinase assay, purified enzyme, DELFIA format; conditions: 100 μM ATP, 1.25 μM His6-S6K; read-out: mTOR Kinase Median IC50
T1 construct: FLAG

PI3Kα, sequence (P42336 whole entry, species assumed): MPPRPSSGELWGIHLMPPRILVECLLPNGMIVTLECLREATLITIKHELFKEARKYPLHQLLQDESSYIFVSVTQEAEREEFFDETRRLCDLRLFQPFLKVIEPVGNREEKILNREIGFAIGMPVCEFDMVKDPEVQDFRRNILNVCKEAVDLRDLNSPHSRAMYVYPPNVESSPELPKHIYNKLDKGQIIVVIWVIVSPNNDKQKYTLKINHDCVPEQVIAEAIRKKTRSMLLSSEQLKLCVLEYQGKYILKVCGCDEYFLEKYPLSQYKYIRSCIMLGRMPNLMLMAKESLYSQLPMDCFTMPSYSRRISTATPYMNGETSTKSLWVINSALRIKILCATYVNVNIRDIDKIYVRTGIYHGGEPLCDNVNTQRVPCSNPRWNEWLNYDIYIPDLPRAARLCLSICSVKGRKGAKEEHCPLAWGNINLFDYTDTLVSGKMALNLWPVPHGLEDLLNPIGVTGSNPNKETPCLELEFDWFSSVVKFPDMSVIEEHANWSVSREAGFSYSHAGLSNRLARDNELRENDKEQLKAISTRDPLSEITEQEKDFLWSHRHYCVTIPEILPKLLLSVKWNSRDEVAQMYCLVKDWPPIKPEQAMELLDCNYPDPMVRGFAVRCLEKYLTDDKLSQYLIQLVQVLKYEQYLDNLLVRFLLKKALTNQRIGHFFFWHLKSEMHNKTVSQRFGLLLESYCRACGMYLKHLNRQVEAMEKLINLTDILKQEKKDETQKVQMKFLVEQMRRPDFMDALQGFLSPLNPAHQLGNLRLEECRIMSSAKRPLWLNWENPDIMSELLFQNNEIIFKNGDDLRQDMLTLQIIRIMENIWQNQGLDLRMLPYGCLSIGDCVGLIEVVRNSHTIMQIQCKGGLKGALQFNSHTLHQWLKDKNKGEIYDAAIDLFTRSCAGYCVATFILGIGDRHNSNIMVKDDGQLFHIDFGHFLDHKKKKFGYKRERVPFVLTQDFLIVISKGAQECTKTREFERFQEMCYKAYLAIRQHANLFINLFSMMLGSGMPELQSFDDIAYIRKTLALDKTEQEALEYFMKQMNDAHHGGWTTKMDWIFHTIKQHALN
PI3Kα, sequence (P27986 whole entry partner, species assumed): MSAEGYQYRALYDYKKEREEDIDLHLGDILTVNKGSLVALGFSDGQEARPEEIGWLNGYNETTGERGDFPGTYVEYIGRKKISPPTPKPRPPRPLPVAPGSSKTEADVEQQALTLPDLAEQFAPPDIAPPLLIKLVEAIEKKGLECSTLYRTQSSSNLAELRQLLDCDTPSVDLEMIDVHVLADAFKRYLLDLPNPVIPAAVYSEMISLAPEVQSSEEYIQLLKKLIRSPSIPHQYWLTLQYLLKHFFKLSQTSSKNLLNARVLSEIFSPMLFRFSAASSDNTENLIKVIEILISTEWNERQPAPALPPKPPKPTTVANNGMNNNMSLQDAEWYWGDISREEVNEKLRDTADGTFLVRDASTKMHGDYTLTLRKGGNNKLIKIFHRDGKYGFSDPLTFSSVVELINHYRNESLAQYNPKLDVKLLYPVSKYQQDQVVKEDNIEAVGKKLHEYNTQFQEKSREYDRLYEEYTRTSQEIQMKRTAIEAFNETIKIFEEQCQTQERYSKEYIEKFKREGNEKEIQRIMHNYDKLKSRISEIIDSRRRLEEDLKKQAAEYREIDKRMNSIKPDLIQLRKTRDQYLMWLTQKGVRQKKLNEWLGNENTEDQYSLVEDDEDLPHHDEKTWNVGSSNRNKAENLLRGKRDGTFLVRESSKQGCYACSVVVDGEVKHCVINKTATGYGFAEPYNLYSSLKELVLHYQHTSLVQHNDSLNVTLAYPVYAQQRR
PI3Kγ, sequence (P48736 whole entry, species assumed): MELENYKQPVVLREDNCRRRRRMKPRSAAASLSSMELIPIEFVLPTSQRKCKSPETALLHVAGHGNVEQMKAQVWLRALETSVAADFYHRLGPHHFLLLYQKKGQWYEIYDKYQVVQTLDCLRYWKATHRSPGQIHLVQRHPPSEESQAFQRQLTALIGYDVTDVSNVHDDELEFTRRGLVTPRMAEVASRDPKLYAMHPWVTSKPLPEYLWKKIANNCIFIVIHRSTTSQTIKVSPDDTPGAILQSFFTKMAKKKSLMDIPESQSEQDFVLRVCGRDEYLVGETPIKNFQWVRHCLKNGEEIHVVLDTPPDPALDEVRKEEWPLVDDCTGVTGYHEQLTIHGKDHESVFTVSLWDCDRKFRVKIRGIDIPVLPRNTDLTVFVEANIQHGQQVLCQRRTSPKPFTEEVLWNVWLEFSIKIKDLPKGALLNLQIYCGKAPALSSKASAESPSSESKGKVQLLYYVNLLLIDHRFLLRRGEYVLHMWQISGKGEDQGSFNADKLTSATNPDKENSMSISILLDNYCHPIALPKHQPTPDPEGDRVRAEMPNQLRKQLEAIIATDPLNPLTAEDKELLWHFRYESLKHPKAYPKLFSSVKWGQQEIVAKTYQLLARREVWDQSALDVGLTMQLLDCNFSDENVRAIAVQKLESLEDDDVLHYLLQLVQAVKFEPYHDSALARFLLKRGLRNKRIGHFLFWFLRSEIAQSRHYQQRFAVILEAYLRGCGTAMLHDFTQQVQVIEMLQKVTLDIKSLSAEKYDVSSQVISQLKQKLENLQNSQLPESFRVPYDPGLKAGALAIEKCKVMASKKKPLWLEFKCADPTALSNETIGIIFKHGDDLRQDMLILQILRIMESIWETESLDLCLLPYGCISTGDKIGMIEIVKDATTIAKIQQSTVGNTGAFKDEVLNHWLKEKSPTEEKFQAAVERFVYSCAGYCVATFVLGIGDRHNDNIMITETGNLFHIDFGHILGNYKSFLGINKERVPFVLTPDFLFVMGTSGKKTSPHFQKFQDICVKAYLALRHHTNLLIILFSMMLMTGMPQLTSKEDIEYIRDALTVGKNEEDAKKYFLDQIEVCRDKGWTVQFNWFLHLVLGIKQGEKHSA

Structure (SMILES)	IC50 (PI3Kα)	IC50 (PI3Kγ)	IC50 (mTOR Kinase (FLAG-TOR))
CN(C)CCn1cc(C(=O)Nc2cccnc2)c2c(N3CCOCC3)nc(-c3ccc(NC(=O)Nc4cccnc4)cc3)nc21 [Compound 10, 7-[2-(dimethylamino)ethyl]-4-morpholin-4-yl-N-pyridin-3-yl-2-{4-[(pyridin-3-ylcarbamoyl)amino]phenyl}-7H-pyrrolo[2,3-d]pyrimidine-5-carboxamide]	16 nM	72 nM	0.88 nM
Nc1nc2cc(-c3nc(N4CCOCC4)c4ccn(CC(F)(F)F)c4n3)ccc2[nH]1 [Compound 45, 5-[4-morpholin-4-yl-7-(2,2,2-trifluoroethyl)-7H-pyrrolo[2,3-d]pyrimidin-2-yl]-1H-benzimidazol-2-amine]	45 nM	506 nM	36.5 nM
CN(C)CCNC(=O)Nc1ccc(-c2nc(N3CCOCC3)c3ccn(CC(F)(F)F)c3n2)cc1 [Compound 41, 1-[2-(dimethylamino)ethyl]-3-{4-[4-morpholin-4-yl-7-(2,2,2-trifluoroethyl)-7H-pyrrolo[2,3-d]pyrimidin-2-yl]phenyl}urea]	154 nM	664 nM	110 nM
CCOC(=O)Nc1nc2cc(-c3nc(N4CCOCC4)c4ccn(CC(F)(F)F)c4n3)ccc2[nH]1 [Compound 49, ethyl {5-[4-morpholin-4-yl-7-(2,2,2-trifluoroethyl)-7H-pyrrolo[2,3-d]pyrimidin-2-yl]-1H-benzimidazol-2-yl}carbamate]	1840 nM	210 nM	1450 nM
CN(C)CCNC(=O)Nc1ccc(-c2nc(N3CCOCC3)c3ccn(CCN(C)C)c3n2)cc1 [Compound 14, 1-[2-(dimethylamino)ethyl]-3-(4-{7-[2-(dimethylamino)ethyl]-4-morpholin-4-yl-7H-pyrrolo[2,3-d]pyrimidin-2-yl}phenyl)urea]	78 nM	554 nM	2150 nM
CNCCn1ccc2c(N3CCOCC3)nc(-c3ccc(NC(=O)Nc4ccncc4)cc3)nc21 [Compound 33, 1-(4-{7-[2-(methylamino)ethyl]-4-morpholin-4-yl-7H-pyrrolo[2,3-d]pyrimidin-2-yl}phenyl)-3-pyridin-4-ylurea]	12 nM	100 nM	5.3 nM
CCn1ccc2c(N3CCOCC3)nc(-c3ccc(NC(=O)Nc4ccc(C(=O)NCCCN(C)C)cc4)cc3)nc21 [Compound 74, N-[3-(dimethylamino)propyl]-4-({[4-(7-ethyl-4-morpholin-4-yl-7H-pyrrolo[2,3-d]pyrimidin-2-yl)phenyl]carbamoyl}amino)benzamide]	1.9 nM	32 nM	1.2 nM

Now from value to molecule:

IC50 (PI3Kα)	IC50 (PI3Kγ)	IC50 (mTOR Kinase (FLAG-TOR))	Structure (SMILES)
4 nM	50 nM	0.73 nM	CCn1ccc2c(N3CCOCC3)nc(-c3ccc(NC(=O)Nc4ccc(C(=O)N5CCN(C(C)C)CC5)cc4)cc3)nc21 [Compound 91, 1-[4-(7-ethyl-4-morpholin-4-yl-7H-pyrrolo[2,3-d]pyrimidin-2-yl)phenyl]-3-(4-{[4-(1-methylethyl)piperazin-1-yl]carbonyl}phenyl)urea]
1.7 nM	50 nM	0.38 nM	CC(C)n1ccc2c(N3CCOCC3)nc(-c3ccc(NC(=O)Nc4ccc(C(=O)NCCN(C)C)cc4)cc3)nc21 [Compound 86, N-[2-(dimethylamino)ethyl]-4-({[4-(7-isopropyl-4-morpholin-4-yl-7H-pyrrolo[2,3-d]pyrimidin-2-yl)phenyl]carbamoyl}amino)benzamide]
< 1.8 nM	8 nM	0.99 nM	CCn1ccc2c(N3CCOCC3)nc(-c3ccc(NC(=O)Nc4ccc(C(=O)N5CCNCC5)cc4)cc3)nc21 [Compound 67, 1-[4-(7-ethyl-4-morpholin-4-yl-7H-pyrrolo[2,3-d]pyrimidin-2-yl)phenyl]-3-[4-(piperazin-1-ylcarbonyl)phenyl]urea]
47 nM	135 nM	2.8 nM	CC(C)n1ccc2c(N3CCOCC3)nc(-c3ccc(NC(=O)Nc4ccc(N5CCN(C)CC5)cc4)cc3)nc21 [Compound 80, 1-[4-(7-isopropyl-4-morpholin-4-yl-7H-pyrrolo[2,3-d]pyrimidin-2-yl)phenyl]-3-[4-(4-methylpiperazin-1-yl)phenyl]urea]
